Reference: patent US11731977B2, “SGC stimulators” (Cyclerion Therapeutics, Inc., priority 2016, dated 2023)
Read-outs that look alike come from different tables or passages of the source.

Target: T1, sGC enzyme (Homo sapiens, UniProt Q02108+Q02153)
T1 construct: sGC enzyme activity values in HEK cells, determined by the GloSensor assay; host or cells: HEK293 cells stably expressing GloSensor 40F cGMP biosensor
T1 sequence (Q02153 1-619): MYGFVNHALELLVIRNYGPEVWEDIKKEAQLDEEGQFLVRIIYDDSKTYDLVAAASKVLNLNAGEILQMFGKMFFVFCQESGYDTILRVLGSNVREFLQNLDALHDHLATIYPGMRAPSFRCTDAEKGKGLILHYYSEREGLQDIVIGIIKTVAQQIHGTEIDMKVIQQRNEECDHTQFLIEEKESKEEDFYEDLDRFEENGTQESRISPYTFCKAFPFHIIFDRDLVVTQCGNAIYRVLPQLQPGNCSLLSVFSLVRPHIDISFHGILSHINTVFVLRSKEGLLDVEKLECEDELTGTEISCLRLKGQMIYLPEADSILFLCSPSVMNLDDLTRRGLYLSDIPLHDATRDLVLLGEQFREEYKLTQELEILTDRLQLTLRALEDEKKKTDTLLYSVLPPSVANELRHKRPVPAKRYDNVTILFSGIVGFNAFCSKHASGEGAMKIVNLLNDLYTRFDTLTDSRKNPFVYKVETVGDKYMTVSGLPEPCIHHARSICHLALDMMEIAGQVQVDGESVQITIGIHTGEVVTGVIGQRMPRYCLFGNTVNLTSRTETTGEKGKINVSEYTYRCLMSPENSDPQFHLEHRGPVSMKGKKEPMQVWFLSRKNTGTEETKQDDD
T1 sequence (Q02108 1-690): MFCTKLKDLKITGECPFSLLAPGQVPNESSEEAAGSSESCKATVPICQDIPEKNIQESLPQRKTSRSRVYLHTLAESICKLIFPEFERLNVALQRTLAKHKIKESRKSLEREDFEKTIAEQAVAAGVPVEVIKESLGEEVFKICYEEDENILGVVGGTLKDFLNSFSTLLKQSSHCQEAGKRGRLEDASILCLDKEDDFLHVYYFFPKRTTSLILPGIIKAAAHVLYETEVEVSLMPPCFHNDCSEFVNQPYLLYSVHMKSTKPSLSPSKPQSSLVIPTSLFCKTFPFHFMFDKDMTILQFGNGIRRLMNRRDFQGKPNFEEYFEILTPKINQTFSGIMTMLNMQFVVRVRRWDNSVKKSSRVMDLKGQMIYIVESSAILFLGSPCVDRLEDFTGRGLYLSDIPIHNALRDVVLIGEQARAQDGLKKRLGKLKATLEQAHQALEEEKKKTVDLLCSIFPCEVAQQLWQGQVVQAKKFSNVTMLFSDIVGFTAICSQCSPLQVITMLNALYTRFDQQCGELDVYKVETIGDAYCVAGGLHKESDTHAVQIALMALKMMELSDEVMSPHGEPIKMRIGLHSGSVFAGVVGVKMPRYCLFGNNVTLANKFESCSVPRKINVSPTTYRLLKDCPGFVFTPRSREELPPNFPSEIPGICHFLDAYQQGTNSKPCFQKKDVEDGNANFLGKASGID
Test: cGMP GloSensor cell-based assay, synergy with NO at varied DETA-NO (Example 2b)
Settings: for EC50: HEK293 GloSensor cells, read-out: EC50 (Absolute EC50)
Protocol: HEK293 cells expressing GloSensor™ 40F cGMP (Part No: CS182801, Promega) were used to evaluate the synergy of the test compounds with NO. Multiple assays where run in which the concentrations of test compound also well as the concentration of Diethylenetriamine NONOate (DETA-NONOate) were varied to determine the synergy of the test compound with NO. Test compounds and Diethylenetriamine NONOate (DETA-NONOate or DETA-NO) were diluted to 3 mM (20×) in serum-free CO2 independent medium and serially diluted at 4× dilutions to create 5× dose curve from which 10 ul was added to the wells (x μM concentration for test compound solution and y μM concentration for DETA-NO solution; wherein x is one of the following final concentrations: 30000 nM, 7500 nM, 1875 nM, 468.8 nM, 117.2 nM, 29.29 nM, 7.320 nM, 1.830 nM, 0.460 nM, 0.114 nM, and 0.029 nM and y is one of the following final concentrations: 30 μM, 10 μM, 3.33 μM 1.11 μM, and 0 μM).
Following the analysis as described above, Table 2b summarizes results obtained for Compound I-1 with the various DETA-NO amount in this assay.

**Q.** What does the source list for `Fc1ccccc1Cc1nc(-c2nc(C(F)(F)F)n[nH]2)cn2ccnc12` [Compound I-1, 8-(2-fluorobenzyl)-6-(3-(trifluoromethyl)-1H-1,2,4-triazol-5-yl)imidazo[1,2-a]pyrazine]?
**A.** EC50 ([DETA-NO] 0 uM): 0.1 to 1 µM; EC50 ([DETA-NO] 1.11 uM): 0.1 to 1 µM; EC50 ([DETA-NO] 3.33 uM): 0.1 to 1 µM; EC50 ([DETA-NO] 10 uM): 0.1 to 1 µM; EC50 ([DETA-NO] 30 uM): ≤ 0.1 µM; synergy with NO to stimulate sGC (varied DETA-NO concentrations): synergizes with NO
